The record followed here is paper PMC10056899, “Neuroprotective and Antiherpetic Properties of Polyphenolic Compounds from Maackia amurensis Heartwood” (Molecules, 2023).

Values joined by “and” are separate entries in the source; they are usually repeats but may differ in a detail not shown here. Equal values may be shown once.

Series [1] has as its system PQ-treated Neuro-2a cells. The series can be described thus: Mitochondrial membrane potential in PQ-treated cells (TMRM). To be noted: 0.1 μM. In kind it is cell-based, murine. On the procedure: […] Then, we added PQ (500 μM) and kept the cell suspension in a CO2-incubator for 1 h. Cells incubated without PQ and stilbenes and with PQ only were used as positive and negative control, respectively. We added the tetramethylrhodamine methyl (TMRM) (Sigma-Aldrich, St. Louis, MO, USA) solution (500 nM) to each well and kept the cells for 30 min in a CO2-incubator at 37 °C. The intensity of fluorescence was measured with a PHERAstar […] reader (BMG Labtech, Ortenberg, Germany) at λex = 540 nm and λem = 590 nm. We processed the data by MARS Data Analysis v. 3.01R2 (BMG Labtech, Ortenberg, Germany) and presented the results as percentages of the positive control value.

The nature of series [2]: Cytotoxicity against Vero cells (MTT assay). The format is cell-based. To be noted: African green monkey (Chlorocebus sp.). On the procedure:
(§1) The HSV-1 strain L2 and Vero cell culture (kidney epithelial cells of the African green monkey Chlorocebus sp.) were obtained from the N.F. Gamaleya Federal Research Centre for Epidemiology and Microbiology (Moscow, Russia). HSV-1 was grown in Vero cells, using Dulbecco′s Modified Eagle′s Medium (DMEM, Biolot, St. Petersburg, Russia) supplemented with 10% fetal bovine serum (FBS, Biolot, St. Petersburg, Russia) and 100 U/mL of gentamycin (Dalkhimpharm, Khabarovsk, Russia), at 37 °C in a CO2 incubator. In the maintenance medium, the FBS concentration was decreased to 1%.
(§2) The tested compounds were dissolved in DMSO (Sigma, St. Louis, MO, USA) at a concentration 10 mg/mL and stored at −20 °C. For cytotoxicity and anti-HSV-1 activity determination, the stock solutions were diluted with DMEM so that the final concentration of DMSO was 0.5%.
The cytotoxicity evaluation of the studied compounds was performed using the MTT assay, as described previously. In brief, confluent Vero cells in 96-well microplates (1 × 10^4 cells/well) were incubated with tested compounds at various concentrations (1–500 μg/mL) at 37 °C for 48 h (5% CO2). Untreated cells were used as controls. Then, MTT solution (methylthiazolyltetrazolium bromide, Sigma, St. Louis, MO, USA) was added to cells at a concentration of 5 mg/mL and the cells were incubated at 37 °C for 2 h. After dissolution of formazan crystals, optical densities were read at 540 nm (Labsystems Multiskan RC, Vantaa, Finland). […] [42]. Experiments were performed in triplicate and repeated three times.
Background: Tetrazolium assays rely on reduction of a dye to a coloured formazan, in cell work by metabolically active cells.

In series [3] the test system is PQ-treated Neuro-2a cells. Put plainly: Intracellular ROS level in PQ-treated cells (H2DCF-DA). To be noted: Mus musculus, N2a, 0.1 μM (minimum studied concentration), PQ 1 mM. In kind it is cell-based, murine. The protocol:
After 24 h of adhesion, Neuro-2a cells (1 × 10^4 cells/well) were incubated with stilbenes (0.01–10 µM) for 1 h. After that, we added PQ (1 mM) to each well and incubated the cells for 3 h. To study ROS formation, we added 20 µL of 2,7-dichlorodihydrofluorescein diacetate solution ([…], H2DCF-DA, Molecular Probes, Eugene, OR, USA) to each well, so that the concentration was 10 µM, and kept the microplate in a CO2–incubator for additional 30 min at 37 °C.

Series [4] can be described thus: Cytotoxic activity against Neuro-2a cells (MTT assay). The format is cell-based, murine. To be noted: mouse, Neuro-2a neuroblastoma cells, data not shown, read-out: EC50 of cell viability reduction (cytotoxic activity). The protocol: We purchased the murine neuroblastoma cell line Neuro-2a (CCL-131) from the American Type Culture Collection (ATCC®) (Manassas, VA, USA). We cultured Neuro-2a cells in Dulbecco′s Modified Eagle Medium (Biolot, St. Petersburg, Russia), which contained 10% fetal bovine serum (Biolot, St. Petersburg, Russia) and 1% penicillin/streptomycin (Biolot, St. Petersburg, Russia). We incubated the cells at 37 °C in a humidified atmosphere containing 5% (v/v) CO2.
We prepared the stock solutions of stilbenes in DMSO at a concentration of 10 mM. Compounds 1–6 were added to the wells of the plates in a volume of 20 μL diluted in PBS at the following final concentrations: 0.1, 1.0, and 10.0 µM (final concentration of DMSO <1%).
Neuro-2a cells (1 × 10^4 cells/well) were kept in a CO2 incubator at 37 °C for 24 h until they formed an adherent monolayer. Then, 20 μL of stilbenes solution was added to the cells. After incubation for 24 h, the medium containing the stilbenes was replaced by 100 μL of fresh DMEM medium. Then, we added 10 μL of MTT (3-(4,5-dimethylthiazol-2-yl)-2,5-diphenyltetrazolium bromide) (Sigma-Aldrich, St. Louis, MO, USA) stock solution (5 mg/mL) to each well and incubated the microplate for 4 h. […] After incubation for 18 h, we measured the absorbance of the converted dye formazan on a Multiskan FC microplate photometer (Thermo Scientific, Waltham, MA, USA) at a wavelength of 570 nm. […]

Series [5] is described as follows: DPPH radical scavenging assay. To be noted: 20 min. The protocol:
The DPPH (2,2-diphenyl-1-picrylhydrazyl) scavenging effect of polyphenolic compounds 1-6 from M. amurensis heartwood was evaluated as described previously in [40]. Stilbenes were added to DPPH solution in MeOH (10^−4 M) at a concentration range from 1 to 34 µM. The mixture was kept in the dark at room temperature for 20 min. Then, we measured the absorbance at 517 nm using a Shimadzu UV 1240 spectrophotometer (Shimadzu, Kyoto, Japan). The DPPH radical-scavenging effect (%) of the stilbenes was calculated using Equation (1): (1) DPPH scavenging effect, %=A0−Ax/A0×100, where: • A0 is the absorbance of DPPH solution without polyphenolic compounds (blank sample); • Ax is the absorbance of DPPH solution in the presence of different concentrations of polyphenolic compounds.
Quercetin and ascorbic acid were used as reference compounds. All experiments were performed in triplicate. The half maximal inhibitory concentration (IC50) for polyphenolic compounds was calculated by plotting the DPPH scavenging effect (%) against the concentrations of polyphenolic compounds. IC50 values are given as the mean ± SEM.
On the technique in general: The DPPH test is a chemical assay of radical scavenging.

For another series, the system named is HSV-1. The series can be described thus: Anti-HSV-1 activity, cytopathic effect (CPE) inhibition assay in Vero cells. In kind it is cell-based, HSV-1 strain L2. On the procedure: as §1, §2
The anti-HSV-1 activity of stilbenes was evaluated using cytopathic effect (CPE) inhibition assay in Vero cells. We infected the monolayer of cells grown in 96-well plates (1 × 10^4 cells/well) with 100 µL/well of virus suspension (100 TCD50/mL) and we simultaneously treated it with stilbenes 1–6 (100 µL/well) at various concentrations (from 1 to 400 μg/mL) for one hour at 37 ◦C. After virus absorption, we removed the mixture of virus and stilbenes, washed the cells, and added the maintenance medium with 1% FBS. […] We used MTT assay to evaluate the antiviral activity of stilbenes. The viral inhibition rate (IR, %) was calculated according to Equation (3):(3) IR, %=Atv−Acv/Acd−Acv×100, where: • Atv is the absorbance of cells infected with virus and treated with a polyphenolic compound; • Acv is the absorbance of the untreated virus-infected cells; • Acd is the absorbance of control (untreated and non-infected) cells.
The selectivity index (SI) was calculated as the ratio of CC50 to IC50. Experiments were repeated three times.
In general terms: Damage to the host cells serves as the signal in cytopathic effect assays.

The nature of series [6]: Ferric reducing antioxidant power (FRAP) assay. To be noted: 4 min, pH 3.6. On the procedure: The FRAP assay was carried out as described in [41]. We prepared FRAP reagent by mixing 2.5 mL of TPTZ (2,4,6-tris(2-pyridyl)-s-triazine) solution (10 mM) in 40 mM HCl and […] of FeCl3 solution (20 mM) in acetate buffer solution (300 mM, pH 3.6). Then, we added stilbenes 1–6 to 3 mL of FRAP reagent at concentrations from 1 to 34 µM. The mixture was kept in the dark at room temperature for 4 min. Then, we measured the absorbance at 595 nm using a Shimadzu UV 1240 spectrophotometer. Equation (2) was used to calculate the FRAP values of stilbenes 1–6:(2) FRAP=CFe/Cx, where: • CFe is the concentration of Fe^2+ (µM) formed in the reaction; • Cx is the concentration of polyphenolic compounds in the reacting mixture.
The concentration of Fe^2+ (µM) formed in the reaction was determined using the calibration curve obtained for different concentrations of FeSO4·7H2O.

For the compound `Oc1cc(O)cc(/C=C/c2ccc3c(c2)O[C@H](c2cc(O)cc(O)c2)[C@@H](c2ccc(O)c(O)c2)O3)c1` [Compound 3, maackin], the “Increase of mitochondrial membrane potential compared to PQ-treated cells” value in series [1] is 16%. Further, the CC50 at 48 h in series [2] was 270 µg/mL and 555 µM. For the same compound, the inhibition at 0.1 µM in series [3] was found to be 17%. In addition, the EC50 at 24 h in series [4] worked out at 87.7 µM. In series [5], the “DPPH Scavenging Effect IC50” value was determined as 1.31 ± 0.15 µg. Also, the IC50 in series [5] (read-out: DPPH Scavenging Effect IC50) came to 2.7 ± 0.3 µM. Moreover, in the series with HSV-1 (Human alphaherpesvirus 1, Vero, read-out: IC50 (CPE assay)), the IC50 is 17.6 µg/mL and 36.2 µM. Moreover, the “SI = CC50/IC50” value in the series on HSV-1 (Vero cells, HSV-1) is given as 15.3 ± 1.9. Also, in series [6], the “FRAP CFe2+(µM)/Cpolyphenolic compound (µM)” value was 10.11 ± 0.93 CFe2+(µM)/Cpolyphenolic compound (µM) and the “FRAP CFe2+(µM)/Cpolyphenolic compound (μkg/mL)” value is recorded as 20.80 ± 1.91 CFe2+(µM)/Cpolyphenolic compound (μkg/mL).

As a reminder, the CC50 is the concentration giving 50% cytotoxicity. The inhibition is the drop in the measured response relative to a control, in per cent. The term EC50 denotes the concentration that produces a half-maximal response. Usually IC50 stands for the concentration needed to halve the response being measured.
